Experimental data: ChEMBL document CHEMBL2346573, “Probing the role of the vancomycin e-ring aryl chloride: selective divergent synthesis and evaluation of alternatively substituted E-ring analogues” (2013)
≈ marks a conversion by molar mass, not a printed value.

Legend:
[1] = test system: Enterococcus faecalis; test: Antimicrobial activity against VanB vancomycin-resistant Enterococcus faecalis ATCC 51299 after 24 hrs by microtiter plate assay; type: functional; settings: ATCC 51299, 24 h
[2] = Binding affinity to N,N'-Ac2-L-Lys-D-Ala-D-Ala (unknown origin)
[3] = test system: Staphylococcus aureus; test: Antimicrobial activity against vancomycin-sensitive Staphylococcus aureus ATCC 25923 after 24 hrs by microtiter plate assay; type: functional; settings: ATCC 25923, 24 h
[4] = test system: Enterococcus faecalis; test: Antimicrobial activity against VanB vancomycin-resistant Enterococcus faecalis ATCC 51299; type: functional
[5] = test system: Staphylococcus aureus; test: Antimicrobial activity against Staphylococcus aureus ATCC 25923; type: functional
[6] = test system: Enterococcus faecalis; test: Antimicrobial activity against VanA vancomycin-resistant Enterococcus faecalis BM4166; type: functional
[7] = Ratio of MIC for VanB vancomycin-resistant Enterococcus faecalis ATCC 51299 to MIC for vancomycin-sensitive Staphylococcus aureus ATCC 25923; type: functional

| Compound | MIC [1] [µg/mL] | Ka [2] [×10⁵ /M] | MIC [3] [µg/mL] | MIC [4] [µg/mL] | MIC [5] [µg/mL] | MIC [6] [µg/mL] | Ratio [7] |
| --- | --- | --- | --- | --- | --- | --- | --- |
| CN[C@H](CC(C)C)C(=O)N[C@H]1C(=O)N[C@@H](CC(N)=O)C(=O)N[C@H]2C(=O)N[C@H]3C(=O)N[C@H](C(=O)N[C@H](C(=O)OC)c4cc(OC)cc(OC)c4-c4cc3ccc4OC)[C@H](O)c3ccc(c(Cl)c3)Oc3cc2cc(c3OC)Oc2ccc(cc2N(C)C)[C@H]1O | 10 (≈ 8.18 µM) | 0.34 | 5 (≈ 4.09 µM) |  |  |  |  |
| CN[C@H](CC(C)C)C(=O)N[C@H]1C(=O)N[C@@H](CC(N)=O)C(=O)N[C@H]2C(=O)N[C@H]3C(=O)N[C@H](C(=O)N[C@H](C(=O)O)c4cc(O)cc(O)c4-c4cc3ccc4O)[C@H](O)c3ccc(c(Cl)c3)Oc3cc2cc(c3O)Oc2ccc(cc2)[C@H]1O | 80 (≈ 72.1 µM) | 0.68 | 5 (≈ 4.51 µM) |  |  |  |  |
| CN[C@H](CC(C)C)C(=O)N[C@H]1C(=O)N[C@@H](CC(N)=O)C(=O)N[C@H]2C(=O)N[C@H]3C(=O)N[C@H](C(=O)N[C@H](C(=O)OC)c4cc(OC)cc(OC)c4-c4cc3ccc4OC)[C@H](O)c3ccc(c(Cl)c3)Oc3cc2cc(c3OC)Oc2ccc(cc2B(O)O)[C@H]1O | 10 (≈ 8.17 µM) | 0.23 | 5 (≈ 4.09 µM) |  |  |  |  |
| CN[C@H](CC(C)C)C(=O)N[C@H]1C(=O)N[C@@H](CC(N)=O)C(=O)N[C@H]2C(=O)N[C@H]3C(=O)N[C@H](C(=O)N[C@H](C(=O)OC)c4cc(OC)cc(OC)c4-c4cc3ccc4OC)[C@H](O)c3ccc(c(Cl)c3)Oc3cc2cc(c3OC)Oc2ccc(cc2C(=O)OC)[C@H]1O | 10 (≈ 8.08 µM) | 1 | 2.5 (≈ 2.02 µM) |  |  |  |  |
| N[C@H]1C(=O)N[C@@H]2Cc3ccc(c(Cl)c3)Oc3cc4cc(c3O)Oc3ccc(cc3Cl)[C@@H](O)[C@@H]3NC(=O)[C@H](NC(=O)[C@@H]4NC(=O)[C@@H](NC2=O)c2cc(O)cc(c2)Oc2cc1ccc2O)c1ccc(O)c(c1)-c1c(O)cc(O)cc1[C@@H](C(=O)O)NC3=O [TEICOPLANIN AGLYCON] |  |  |  | 25 (≈ 20.9 µM) | 1.6 (≈ 1.33 µM) | > 100 |  |
| CN[C@H](CC(C)C)C(=O)N[C@H]1C(=O)N[C@@H](CC(N)=O)C(=O)N[C@H]2C(=O)N[C@H]3C(=O)N[C@H](C(=O)N[C@H](C(=O)OC)c4cc(OC)cc(OC)c4-c4cc3ccc4OC)[C@H](O)c3ccc(c(Cl)c3)Oc3cc2cc(c3OC)Oc2ccc(cc2OC)[C@H]1O | 5 (≈ 4.13 µM) | 1.2 | 2.5 (≈ 2.07 µM) |  |  |  |  |
| CN[C@H](CC(C)C)C(=O)N[C@H]1C(=O)N[C@@H](CC(N)=O)C(=O)N[C@H]2C(=O)N[C@H]3C(=O)N[C@H](C(=O)N[C@H](C(=O)OC)c4cc(OC)cc(OC)c4-c4cc3ccc4OC)[C@H](O)c3ccc(c(Cl)c3)Oc3cc2cc(c3OC)Oc2ccc(cc2C(F)(F)F)[C@H]1O | 20 (≈ 16 µM) | 1.2 | 2.5 (≈ 2 µM) |  |  |  | 8 |
| CN[C@H](CC(C)C)C(=O)N[C@H]1C(=O)N[C@@H](CC(N)=O)C(=O)N[C@H]2C(=O)N[C@H]3C(=O)N[C@H](C(=O)N[C@H](C(=O)OC)c4cc(OC)cc(OC)c4-c4cc3ccc4OC)[C@H](O)c3ccc(c(Cl)c3)Oc3cc2cc(c3OC)Oc2ccc(cc2)[C@H]1O | 5 (≈ 4.24 µM) | 0.71 | 5 (≈ 4.24 µM) |  |  |  | 1 |
| CN[C@H](CC(C)C)C(=O)N[C@H]1C(=O)N[C@@H](CC(N)=O)C(=O)N[C@H]2C(=O)N[C@H]3C(=O)N[C@H](C(=O)N[C@H](C(=O)OC)c4cc(OC)cc(OC)c4-c4cc3ccc4OC)[C@H](O)c3ccc(c(Cl)c3)Oc3cc2cc(c3OC)Oc2ccc(cc2[N+](=O)[O-])[C@H]1O | > 40 | 0.097 | > 40 |  |  |  |  |
| CN[C@H](CC(C)C)C(=O)N[C@H]1C(=O)N[C@@H](CC(N)=O)C(=O)N[C@H]2C(=O)N[C@H]3C(=O)N[C@H](C(=O)N[C@H](C(=O)O)c4cc(O)cc(O)c4-c4cc3ccc4O)[C@H](O)c3ccc(c(Cl)c3)Oc3cc2cc(c3O)Oc2ccc(cc2Cl)[C@H]1O [VANCOMYCIN AGLYCON] | 40 (≈ 35 µM) | 1.4 | 1.25 (≈ 1.09 µM) | > 100 | 0.8 (≈ 0.699 µM) | > 100 |  |
| CN[C@H](CC(C)C)C(=O)N[C@H]1C(=O)N[C@@H](CC(N)=O)C(=O)N[C@H]2C(=O)N[C@H]3C(=O)N[C@H](C(=O)N[C@H](C(=O)OC)c4cc(OC)cc(OC)c4-c4cc3ccc4OC)[C@H](O)c3ccc(c(Cl)c3)Oc3cc2cc(c3OC)Oc2ccc(cc2Br)[C@H]1O | 5 (≈ 3.97 µM) | 1.1 | 2.5 (≈ 1.99 µM) |  |  |  |  |
| CN[C@H](CC(C)C)C(=O)N[C@H]1C(=O)N[C@@H](CC(N)=O)C(=O)N[C@H]2C(=O)N[C@H]3C(=O)N[C@H](C(=O)N[C@H](C(=O)O)c4cc(O)cc(O)c4-c4cc3ccc4O)[C@H](O)c3ccc(c(Cl)c3)Oc3cc2cc(c3O)Oc2ccc(cc2O)[C@H]1O | 40 (≈ 35.5 µM) | 0.53 | 5 (≈ 4.44 µM) |  |  |  |  |
| CN[C@H](CC(C)C)C(=O)N[C@H]1C(=O)N[C@@H](CC(N)=O)C(=O)N[C@H]2C(=O)N[C@H]3C(=O)N[C@H](C(=O)N[C@H](C(=O)OC)c4cc(OC)cc(OC)c4-c4cc3ccc4OC)[C@H](O)c3ccc(c(Cl)c3)Oc3cc2cc(c3OC)Oc2ccc(cc2C#N)[C@H]1O | 5 (≈ 4.15 µM) | 1.1 | 2.5 (≈ 2.08 µM) |  |  |  |  |
| CN[C@H](CC(C)C)C(=O)N[C@H]1C(=O)N[C@@H](CC(N)=O)C(=O)N[C@H]2C(=O)N[C@H]3C(=O)N[C@H](C(=O)N[C@H](C(=O)OC)c4cc(OC)cc(OC)c4-c4cc3ccc4OC)[C@H](O)c3ccc(c(Cl)c3)Oc3cc2cc(c3OC)Oc2ccc(cc2C)[C@H]1O | 5 (≈ 4.19 µM) | 1.2 | 2.5 (≈ 2.09 µM) |  |  |  |  |
| CN[C@H](CC(C)C)C(=O)N[C@H]1C(=O)N[C@@H](CC(N)=O)C(=O)N[C@H]2C(=O)N[C@H]3C(=O)N[C@H](C(=O)N[C@H](C(=O)O)c4cc(O)cc(O)c4-c4cc3ccc4O)[C@H](O)c3ccc(c(Cl)c3)Oc3cc2cc(c3O[C@@H]2O[C@H](CO)[C@@H](O)[C@H](O)[C@H]2O[C@H]2C[C@](C)(N)[C@H](O)[C@H](C)O2)Oc2ccc(cc2Cl)[C@H]1O [VANCOMYCIN] | 120 (≈ 82.8 µM) |  | 1.25 (≈ 0.863 µM) | 120 (≈ 82.8 µM) |  | > 100 |  |
| COC(=O)[C@H]1NC(=O)[C@H]2NC(=O)[C@H](NC(=O)[C@@H]3NC(=O)[C@H]4NC(=O)[C@@H](Cc5ccc(c(Cl)c5)Oc5cc3cc(c5OC)Oc3ccc(cc3Cl)[C@H]2O)NC(=O)[C@H](N)c2ccc(OC)c(c2)Oc2cc(OC)cc4c2)c2ccc(OC)c(c2)-c2c(OC)cc(OC)cc21 |  |  |  | 3.2 (≈ 2.47 µM) | 3.2 (≈ 2.47 µM) | > 100 |  |
| CN[C@H](CC(C)C)C(=O)N[C@H]1C(=O)N[C@@H](CC(N)=O)C(=O)N[C@H]2C(=O)N[C@H]3C(=O)N[C@H](C(=O)N[C@H](C(=O)OC)c4cc(OC)cc(OC)c4-c4cc3ccc4OC)[C@H](O)c3ccc(c(Cl)c3)Oc3cc2cc(c3OC)Oc2ccc(cc2I)[C@H]1O | 10 (≈ 7.66 µM) | 1.3 | 2.5 (≈ 1.91 µM) |  |  |  |  |
| CN[C@H](CC(C)C)C(=O)N[C@H]1C(=O)N[C@@H](CC(N)=O)C(=O)N[C@H]2C(=O)N[C@H]3C(=O)N[C@H](C(=O)N[C@H](C(=O)O)c4cc(O)cc(O)c4-c4cc3ccc4O)[C@H](O)c3ccc(c(Cl)c3)Oc3cc2cc(c3O)Oc2ccc(cc2Br)[C@H]1O | 40 (≈ 33.7 µM) | 1.1 | 2.5 (≈ 2.1 µM) |  |  |  |  |
| CN[C@H](CC(C)C)C(=O)N[C@H]1C(=O)N[C@@H](CC(N)=O)C(=O)N[C@H]2C(=O)N[C@H]3C(=O)N[C@H](C(=O)N[C@H](C(=O)OC)c4cc(OC)cc(OC)c4-c4cc3ccc4OC)[C@H](O)c3ccc(c(Cl)c3)Oc3cc2cc(c3OC)Oc2ccc(cc2N=[N+]=[N-])[C@H]1O | 5 (≈ 4.1 µM) | 1.2 | 1.25 (≈ 1.02 µM) |  |  |  |  |
| CN[C@H](CC(C)C)C(=O)N[C@H]1C(=O)N[C@@H](CC(N)=O)C(=O)N[C@H]2C(=O)N[C@H]3C(=O)N[C@H](C(=O)N[C@H](C(=O)OC)c4cc(OC)cc(OC)c4-c4cc3ccc4OC)[C@H](O)c3ccc(c(Cl)c3)Oc3cc2cc(c3OC)Oc2ccc(cc2Cl)[C@H]1O | 2.5 (≈ 2.06 µM) | 1.3 | 1.25 (≈ 1.03 µM) | 2.5 (≈ 2.06 µM) | 1.25 (≈ 1.03 µM) | 50 (≈ 41.2 µM) |  |
| CN[C@H](CC(C)C)C(=O)N[C@H]1C(=O)N[C@@H](CC(N)=O)C(=O)N[C@H]2C(=O)N[C@H]3C(=O)N[C@H](C(=O)N[C@H](C(=O)OC)c4cc(OC)cc(OC)c4-c4cc3ccc4OC)[C@H](O)c3ccc(c(Cl)c3)Oc3cc2cc(c3OC)Oc2ccc(cc2O)[C@H]1O | 5 (≈ 4.18 µM) | 0.88 | 5 (≈ 4.18 µM) |  |  |  | 1 |
